Data from patent US20190010167A1, “INHIBITORS OF THE MENIN-MLL INTERACTION” (Vitae Pharmaceuticals, Inc., priority 2015, published 2019).

target: T1, wild-type menin / MLL-AF9 fusion protein (Homo sapiens, UniProt O00255); test: AlphaLISA menin/MLL binding assay, wild-type menin (Assay 1); settings: biotinylated wild-type menin 5 nM, MLL-AF9-FLAG lysate
T1 construct: made in house; host or cells: E. coli (menin); HEK293 cleared lysate (MLL-AF9-FLAG)
T1 sequence (O00255 1-610): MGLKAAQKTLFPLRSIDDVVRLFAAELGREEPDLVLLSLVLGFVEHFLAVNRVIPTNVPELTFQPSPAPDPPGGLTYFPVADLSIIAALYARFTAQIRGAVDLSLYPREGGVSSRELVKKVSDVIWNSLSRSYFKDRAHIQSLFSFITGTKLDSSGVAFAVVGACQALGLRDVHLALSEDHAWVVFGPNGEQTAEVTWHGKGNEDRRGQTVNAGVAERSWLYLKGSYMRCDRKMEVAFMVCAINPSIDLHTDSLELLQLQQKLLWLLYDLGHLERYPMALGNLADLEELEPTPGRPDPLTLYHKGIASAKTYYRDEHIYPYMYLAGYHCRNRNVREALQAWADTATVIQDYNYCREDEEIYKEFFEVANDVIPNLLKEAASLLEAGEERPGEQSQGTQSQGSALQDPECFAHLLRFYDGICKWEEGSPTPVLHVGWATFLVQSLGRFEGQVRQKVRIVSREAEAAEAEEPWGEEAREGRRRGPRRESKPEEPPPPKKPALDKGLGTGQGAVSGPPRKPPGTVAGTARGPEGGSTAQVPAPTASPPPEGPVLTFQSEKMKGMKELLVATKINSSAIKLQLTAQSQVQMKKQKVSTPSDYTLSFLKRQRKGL
Description: Potencies of inhibitor compounds against menin/MLL binding were assessed by AlphaLISA assay using biotinylated (1) wild-type menin or (2) mutated menin (described in Nature (2012) Vol. 482, pp. 542-548) and MLL-AF9 fusion protein bearing a FLAG epitope at its C-terminus. Menin proteins were expressed in E. coli and covalently modified with biotin using EZ-Link™ Sulfo-NHS-Biotin (ThermoFisher Cat. No. 21217) according to manufacturer's protocol. MLL1-1,396 fused to AF91-92 and the C-terminal FLAG peptide was expressed in HEK293 cells and used as a lysate cleared at 21,000×g for 10 min.
Compounds (2 μL of solutions in DMSO) were dispensed in white 96-well half-area plates (Corning Cat. No. 3693) and incubated for 30 min at RT with 5 nM biotinylated menin and appropriate amount of MLL-AF9-FLAG lysate in 40 μL of 50 mM Tris-HCl buffer pH 7.4 containing 5% (v/v) DMSO, 50 mM NaCl, 0.01% (w/v) bovine serum albumin (BSA) and 1 mM DTT. To this incubation mixture, 40 μl of AlphaLISA anti-FLAG acceptor (PerkinElmer Cat. No. AL112C) and streptavidin donor (PerkinElmer Cat. No. 6760002) beads (10 μg/mL each) was added and incubation continued at RT for 60 min. Alpha (amplified luminescent proximity homogeneous assay) signal was measured on an Envision multi-label plate reader at the end of the incubation. All steps were conducted under dim fluorescent light.
These percent inhibition values were regressed against compound concentrations in the assay using four parameter logit non-linear curve fitting (XLFit, IDBS). The IC50 values were derived from the curve fitting as inflection points on the dose-response curves and are set out in Table 1 below.

Compound	IC50 [nM]
CC(C)CN1CC2(CCN(c3ncnc4ccc(CC(F)(F)F)cc34)CC2)C1 [Example 89, 4-(2-isobutyl-2,7-diazaspiro[3.5]nonan-7-yl)-6-(2,2,2-trifluoroethyl) quinazoline]	≥ 1000
FC(F)(F)Cc1cc2c(N3CCC4(CC3)CN(C3CCOCC3)C4)ncnc2s1 [Example 8, 4-(2-(tetrahydro-2H-pyran-4-yl)-2,7-diazaspiro[3.5]nonan-7-yl)-6-(2,2,2-trifluoroethyl)thieno[2,3-d]pyrimidine]	≥ 1000
CC(C)CN1CC2(CCN(c3ncnc4sc(CC(F)(F)F)nc34)CC2)C1 [Example 81, 7-(2-isobutyl-2,7-diazaspiro[3.5]nonan-7-yl)-2-(2,2,2-trifluoroethyl) thiazolo[5,4-d]pyrimidine]	≥ 1000
FC(F)(F)Cc1cc2c(N3CCC4(CC3)CN(CC3CCCOC3)C4)ncnc2s1 (stereo not drawn) [Example 7, 4-(2-((tetrahydro-2H-pyran-3-yl)methyl)-2,7-diazaspiro[3.5]nonan-7-yl)-6-(2,2,2-trifluoroethyl)thieno[2,3-d]pyrimidine]	≥ 1000
FC(F)(F)Cc1cc2c(N3CCC4(CC3)CN(CC3CCOC3)C4)ncnc2s1 (stereo not drawn) [Example 5, 4-(2-((tetrahydrofuran-3-yl)methyl)-2,7-diazaspiro[3.5]nonan-7-yl)-6-(2,2,2-trifluoroethyl)thieno[2,3-d]pyrimidine]	100 to 1000
CC(C)(N)CC(=O)N1CC2(CCN(c3ncnc4sc(CC(F)(F)F)cc34)CC2)C1 [Example 17, 3-amino-3-methyl-1-(7-(6-(2,2,2-trifluoroethyl)thieno[2,3-d]pyrimidin-4-yl)-2,7-diazaspiro[3.5]nonan-2-yl)butan-1-one]	≥ 1000
CS(=O)(=O)c1ccc(CN2CCC3(CCN(c4ncnc5sc(CC(F)(F)F)cc45)C3)C2)c(Cl)c1 (stereo not drawn) [Example 36, 4-(7-(2-chloro-4-(methylsulfonyl)benzyl)-2,7-diazaspiro[4.4]nonan-2-yl)-6-(2,2,2-trifluoroethyl)thieno[2,3-d]pyrimidine]	100 to 1000
FC(F)(F)Cc1cc2c(N3CC4(CN(CC5CCC(F)(F)CC5)C4)C3)ncnc2s1 [Example 70, 4-(6-((4,4-difluorocyclohexyl)methyl)-2,6-diazaspiro[3.3]heptan-2-yl)-6-(2,2,2-trifluoroethyl)thieno[2,3-d]pyrimidine]	100 to 1000
O=S1(=O)CCC(N2CCC3(CC2)CN(c2ncnc4sc(CC(F)(F)F)cc24)C3)CC1 [Example 104, 4-(2-(6-(2,2,2-trifluoroethyl)thieno[2,3-d]pyrimidin-4-yl)-2,7-diazaspiro[3.5]nonan-7-yl)tetrahydro-2H-thiopyran 1,1-dioxide]	100 to 1000
O=C(C1CCCCN1)N1CC2(C1)CN(c1ncnc3sc(CC(F)(F)F)cc13)C2 (stereo not drawn) [Example 79, piperidin-2-yl(6-(6-(2,2,2-trifluoroethyl)thieno[2,3-d]pyrimidin-4-yl)-2,6-diazaspiro[3.3]heptan-2-yl)methanone]	100 to 1000
CC1(C)CCC(CN2CC3(C2)CN(c2ncnc4sc(CC(F)(F)F)cc24)C3)CC1 [Example 64, 4-(6-((4,4-dimethylcyclohexyl)methyl)-2,6-diazaspiro[3.3]heptan-2-yl)-6-(2,2,2-trifluoroethyl)thieno[2,3-d]pyrimidine]	100 to 1000
COC(=O)N[C@H]1CC[C@@H](CN2CCC3(CCN(c4ncnc5sc(CC(F)(F)F)cc45)C3)C2)CC1 (stereo partly drawn) [Example 51, Methyl ((1s,4s)-4-((7-(6-(2,2,2-trifluoroethyl)thieno[2,3-d]pyrimidin-4-yl)-2,7-diazaspiro[4.4]nonan-2-yl)methyl)cyclohexyl)carbamate]	100 to 1000
CC(C)CN1CCC2(CC1)CN(c1ncnc3sc(CC(F)(F)F)cc13)C2 [Example 101, 4-(7-isobutyl-2,7-diazaspiro[3.5]nonan-2-yl)-6-(2,2,2-trifluoroethyl)thieno[2,3-d]pyrimidine]	100 to 1000
FC(F)(F)Cc1cc2c(N3CC4(CN(CC5COC5)C4)C3)ncnc2s1 [Example 73, 4-(6-(oxetan-3-ylmethyl)-2,6-diazaspiro[3.3]heptan-2-yl)-6-(2,2,2-trifluoroethyl)thieno[2,3-d]pyrimidine]	≥ 1000
FC(F)(F)Cc1ccc2nccc(N3CCC4(CC3)CN(CC3CC3)C4)c2c1 [Example 87, 4-(2-(cyclopropylmethyl)-2,7-diazaspiro[3.5]nonan-7-yl)-6-(2,2,2-trifluoroethyl)quinoline]	≥ 1000
COC1CC(CN2CC3(CCN(c4ncnc5sc(CC(F)(F)F)cc45)CC3)C2)C1 (stereo not drawn) [Example 13]	≥ 1000
FC(F)(F)Cc1cc2c(N3CCC4(CC3)CN(CC3CCCCO3)C4)ncnc2s1 (stereo not drawn) [Example 6, 4-(2-((tetrahydro-2H-pyran-2-yl)methyl)-2,7-diazaspiro[3.5]nonan-7-yl)-6-(2,2,2-trifluoroethyl)thieno[2,3-d]pyrimidine]	≥ 1000
N#Cc1cccc(CN2CCC3(CCN(c4ncnc5sc(CC(F)(F)F)cc45)C3)C2)c1 (stereo not drawn) [Example 35, 3-((7-(6-(2,2,2-Trifluoroethyl)thieno[2,3-d]pyrimidin-4-yl)-2,7-diazaspiro[4.4]nonan-2-yl)methyl)benzonitrile]	100 to 1000

Other lines, results leading:

IC50 [nM]	Compound
100 to 1000	FC(F)(F)Cc1cc2c(N3CCC4(CC3)CN(CC3CCCC(F)(F)C3)C4)ncnc2s1 (stereo not drawn) [Example 11, 4-(2-((3,3-difluorocyclohexyl)methyl)-2,7-diazaspiro[3.5]nonan-7-yl)-6-(2,2,2-trifluoroethyl)thieno[2,3-d]pyrimidine]
100 to 1000	FC(F)(F)Cc1cc2c(N3CCC4(CC3)CN(C3CCCCC3)C4)ncnc2s1 [Example 9, 4-(2-cyclohexyl-2,7-diazaspiro[3.5]nonan-7-yl)-6-(2,2,2-trifluoroethyl)thieno[2,3-d]pyrimidine]
100 to 1000	O=C([C@@H]1CCCN1)N1CCC2(CCN(c3ncnc4sc(CC(F)(F)F)cc34)C2)C1 (stereo partly drawn) [Example 57, 4-(7-prolyl-2,7-diazaspiro[4.4]nonan-2-yl)-6-(2,2,2-trifluoroethyl)thieno[2,3-d]pyrimidine]
100 to 1000	O=S(=O)(N[C@H]1CC[C@H](CN2CC3(C2)CN(c2ncnc4sc(CC(F)(F)F)cc24)C3)CC1)C1CC1 [Example 72, N-((1r,4r)-4-((6-(6-(2,2,2-trifluoroethyl)thieno[2,3-d]pyrimidin-4-yl)-2,6-diazaspiro[3.3]heptan-2-yl)methyl)cyclohexyl)cyclopropanesulfonamide]
100 to 1000	CC(=O)N[C@H]1CC[C@H](CN2CCC3(CC2)CN(c2ncnc4sc(CC(F)(F)F)cc24)C3)CC1 [Example 105, N-((1r,4r)-4-((2-(6-(2,2,2-trifluoroethyl)thieno[2,3-d]pyrimidin-4-yl)-2,7-diazaspiro[3.5]nonan-7-yl)methyl)cyclohexyl)acetamide]
100 to 1000	FC(F)(F)Cc1cc2c(N3CCC4(CC3)CN(CC3CCOCC3)C4)ncnc2s1 [Example 19, 4-(2-((tetrahydro-2H-pyran-4-yl)methyl)-2,7-diazaspiro[3.5]nonan-7-yl)-6-(2,2,2-trifluoroethyl)thieno[2,3-d]pyrimidine]
< 100	Cc1c(CN2CCC3(CCN(c4ncnc5sc(CC(F)(F)F)nc45)C3)C2)ccc2[nH]c(C#N)cc12 (stereo not drawn) [Example 83, 4-methyl-5-((7-(2-(2,2,2-trifluoroethyl)thiazolo[5,4-d]pyrimidin-7-yl)-2,7-diazaspiro[4.4]nonan-2-yl)methyl)-1H-indole-2-carbonitrile]
100 to 1000	O=C(C1CCCNC1)N1CC2(C1)CN(c1ncnc3sc(CC(F)(F)F)cc13)C2 (stereo not drawn) [Example 78, piperidin-3-yl(6-(6-(2,2,2-trifluoroethyl)thieno[2,3-d]pyrimidin-4-yl)-2,6-diazaspiro[3.3]heptan-2-yl)methanone]
< 100	Cc1c(CN2CCC3(CCN(c4ncnc5sc(CC(F)(F)F)cc45)C3)C2)ccc2[nH]c(C#N)cc12 (single isomer, unassigned) [Example 30b, 4-methyl-5-((7-(6-(2,2,2-trifluoroethyl)thieno[2,3-d]pyrimidin-4-yl)-2,7-diazaspiro[4.4]nonan-2-yl)methyl)-1H-indole-2-carbonitrile]
